In patent publication US6916844B2, “Hydroxy pyranone derivative and preparation method thereof” (Amorepacific Corporation, priority 2002, dated 2005):

Tests used:
rabbits = assay: Primary skin irritation test on animals (Draize P.I.I.); type: in vivo; details: 1% in 1,3-butylene glycol:ethanol=7:3, 0.5 ml, observed 24 and 72 hours later
Description: This test was performed for six (6) healthy male rabbits whose hairs on both sides of the backs were cut. The compounds of Examples 1˜6 were dissolved in 1,3-butylene glycol:ethanol=7:3, to obtain 1% concentration of test samples. 0.5 ml of each test samples were applied to right side area of 2.5 cm×2.5 cm. No sample was treated on left side as a control. 24 hours and 72 hours later, skin abnormality such as erythema, crust and edema was observed. Based on the score of skin response, skin irritation was estimated according to Draize's P.I.I. (Primary Irritation Index) and compared with that of retinoic acid.

white guinea pigs = assay: Phototoxicity test; type: in vivo; details: 1% (w/v) solution, UVA 15 J/cm^2, observed at 24, 48 and 72 hours; for Phototoxic index: below 0.5 = no phototoxicity
Description: This test was performed for ten (10) white guinea pigs whose hairs on both sides of the backs were cut, and fixed. On the back of the guinea pig, six (6) test sites measuring 2.5 cm×2.5 cm, three (3) per each side, were sectioned. Right sites were prepared as controls with no irradiation (UV non-irradiation sites) and left sites were irradiated (UV irradiation sites). Vehicle (1,3-butylene glycol:ethanol=7:3) was used as a negative control, and 0.1% concentration of 8-MOP (methoxypsoralene) was used as a positive control; and 1% (w/v) solutions of the compounds of Examples 1˜6 were applied to either site with an amount of […] for each site. 30 minutes later, right sites were shielded with aluminum foil and UVA(320˜380 nm) was irradiated at a distance of about 10 cm therefrom with Waldmann to the final energy of 15 J/cm^2. After 24, 48 and 72 hours elapsed, skin response of guinea pig was observed. Erythema and edema were scored from 0 to 4 points as shown in the Table 3, and skin response was evaluated by summing the scores. Maximum scores were selected when measured on each elapsed time, i.e. 24, 48 and 72 hours, and irritation index was calculated according to the following equation 2. Then, phototoxic index was calculated according to the following equation 3.
[Equation 2] Irritation index=(Maximum of erythema+Maximum of edema)/Number of animals [Equation 3] Phototoxic index=(Irritation index of UV irradiation site)−(Irritation index of UV non-irradiation site)

Human fibroblasts [1] = assay: Collagenase-inhibiting effect (collagenase expression, ELISA kit); type: cell-based; details: 10^-4 M, 24 hours, relative to untreated control group = 100
Description: The collagenase-inhibiting effect of hydroxy pyranone derivatives obtained in Examples 1˜6 was compared with those of retinol and retinoic acid.
Human fibroblasts were cultured in Dulbecco's Modified Eagle's Medium (DMEM) supplemented with 2.5% fetal bovine serum. The fibroblasts were seeded into a 96-well microtiter plate to a density of 5,000 cells/well, and then cultured to 70˜80% of growth. The plate was treated with test samples at a concentration of 10^−4M for 24 hours, then the cultured medium and the cells were raked up and recovered. From the recovered culture, collagenase production was measured with collagenase kit (Catalog #: RPN 2610) commercialized by Amersham Pharmacia Biotech. First, the recovered culture was added into a 96-well plate wherein primary collagenase antibodies were uniformly spread, and then antigen-antibody reaction was performed in an incubator for 3 hours. Later, secondary collagenase antibodies bonded with chromophore were added to the 96-well plate and reacted for 15 minutes. Then, color former was added thereto in order to induce development at the room temperature for 15 minutes, and 1M of sulfuric acid was added to stop the reaction. The reaction solution became yellow, and the color density depends on the progress of the reaction. The absorbance of the yellow 96-well plate was measured at 405 nm with absorptiometer. The expression of collagenase was calculated by the following equation 1. No sample was treated in the control group.
[Equation 1] The expression of collagenase (%)=[(Absorbance of test group)/(Absorbance of control group)]×100
The expression of collagenase was evaluated as a relative value compared with that of the control group of which the expression of collagenase was set to be 100.

Human fibroblasts [2] = assay: Effect on biosynthesis of collagen (procollagen type (I) ELISA); type: cell-based; details: 10^-4 M, 24 hours, relative to untreated control group = 100
Description: The effect of the hydroxy pyranone derivatives obtained in Examples 1˜6 on biosynthesis of collagen was compared with those of retinol and retinoic acid.
Human fibroblasts were seeded into a 24-well plate to a density of 10^5 cells/well and then cultured to 90% of growth. The plate was washed with PBS (phosphate buffered saline) and treated with test samples at a concentration of 10^−4M, and then incubated in a CO2 incubator for 24 hours. From its supernatant, procollagen production was measured with procollagen type (I) ELISA kit. The biosynthesis of collagen was evaluated as a relative value compared with that of the control group, which is not treated with sample and of which the value of biosyntheis of collagen was set to be 100.

[3] = test system: healthy females and males; assay: Human patch test; type: in vivo; details: 1% in patch base; for Average Response (n = 30): calculated by equation 4, below 1 = no irritation; for Number of the subjected showing response, 24 hours later, − (No visible response) / Number of the subjected showing response, 24 hours later, ± (Mild erythema) / Number of the subjected showing response, 24 hours later, + (Intense erythema) / Number of the subjected showing response, 24 hours later, + + (Intense erythema with edema) / Number of the subjected showing response, 24 hours later, + + + (Intense erythema with edema and vesicle): n = 30, 24 hours later; for Number of the subjected showing response, 24 hours later, − (No visible response) / Number of the subjected showing response, 48 hours later, − (No visible response): grade 0; for Number of the subjected showing response, 24 hours later, ± (Mild erythema) / Number of the subjected showing response, 48 hours later, ± (Mild erythema): grade 1; for Number of the subjected showing response, 24 hours later, + (Intense erythema) / Number of the subjected showing response, 48 hours later, + (Intense erythema): grade 2; for Number of the subjected showing response, 24 hours later, + + (Intense erythema with edema) / Number of the subjected showing response, 48 hours later, + + (Intense erythema with edema): grade 3; for Number of the subjected showing response, 24 hours later, + + + (Intense erythema with edema and vesicle) / Number of the subjected showing response, 48 hours later, + + + (Intense erythema with edema and vesicle): grade 4; for Number of the subjected showing response, 48 hours later, − (No visible response) / Number of the subjected showing response, 48 hours later, ± (Mild erythema) / Number of the subjected showing response, 48 hours later, + (Intense erythema) / Number of the subjected showing response, 48 hours later, + + (Intense erythema with edema) / Number of the subjected showing response, 48 hours later, + + + (Intense erythema with edema and vesicle): n = 30, 48 hours later
Description: This test was performed for thirty (30) healthy females and males aged on average 24.8 years and having no experience of hypersensitivity, according to method of CTFA Guideline (The Cosmetic, Toiletry and Fragrance Association. Inc. Washington, D.C., 20023, 1991). Each compound of Examples 1˜6 was dissolved in patch base having the composition of Table 6 to be 1% concentration as for test materials, and 20 μl of each test materials was dropped into a Finn chamber respectively, then attached to the forearm of the subject and fixed with a micropore tape. After 24 hours of patching, the patches were removed and the test sites were marked with marking pen. The observations of the test sites were made after 24 and 48 hours from the patching.
The average response of Table 8 was calculated by the following equation 4. [formula]

SMILES | Expression of collagenase (%) (Human fibroblasts [1]) | Number of the subjected showing response, 24 hours later, − (No visible response) [3] | Number of the subjected showing response, 24 hours later, ± (Mild erythema) [3] | Number of the subjected showing response, 24 hours later, + (Intense erythema) [3] | Number of the subjected showing response, 24 hours later, + + (Intense erythema with edema) [3] | Number of the subjected showing response, 24 hours later, + + + (Intense erythema with edema and vesicle) [3] | Number of the subjected showing response, 48 hours later, − (No visible response) [3] | Number of the subjected showing response, 48 hours later, ± (Mild erythema) [3] | Number of the subjected showing response, 48 hours later, + (Intense erythema) [3] | Number of the subjected showing response, 48 hours later, + + (Intense erythema with edema) [3] | Number of the subjected showing response, 48 hours later, + + + (Intense erythema with edema and vesicle) [3] | Evaluation (skin irritation) (rabbits) | P. I. I. (Primary Irritation Index) (rabbits) | Evaluation (phototoxicity) (white guinea pigs) | Phototoxic index (white guinea pigs) | Biosynthesis of collagen (%) (Human fibroblasts [2]) | Average Response (n = 30) [3]
O=C(OCc1cc(=O)c(O)co1)c1ccc2c(c1)OCO2 [Compound of Ex. 1, (5-hydroxy-4-oxo-4H-pyran-2-yl)methyl 2H-benzo [3,4-d] 1,3-dioxolan-5-carboxylate] | 83 | 28 | 2 | 0 | 0 | 0 | 30 | 0 | 0 | 0 | 0 | No irritation | 0.375 | No phototoxicity | 0 | 118 | 0.83
CC1=C(/C=C/C(C)=C/C=C/C(C)=C/C(=O)O)C(C)(C)CCC1 [Retinoic acid, reference compound] | 75 | – | – | – | – | – | – | – | – | – | – | Light irritation | 1.830 | – | – | 125 | –
CC1=C(/C=C/C(C)=C/C=C/C(C)=C/CO)C(C)(C)CCC1 [Retinol, reference compound] | 82 | – | – | – | – | – | – | – | – | – | – | – | – | – | – | 120 | –

Continued, in another order:

Expression of collagenase (%) (Human fibroblasts [1]) | Number of the subjected showing response, 24 hours later, − (No visible response) [3] | Number of the subjected showing response, 24 hours later, ± (Mild erythema) [3] | Number of the subjected showing response, 24 hours later, + (Intense erythema) [3] | Number of the subjected showing response, 24 hours later, + + (Intense erythema with edema) [3] | Number of the subjected showing response, 24 hours later, + + + (Intense erythema with edema and vesicle) [3] | Number of the subjected showing response, 48 hours later, − (No visible response) [3] | Number of the subjected showing response, 48 hours later, ± (Mild erythema) [3] | Number of the subjected showing response, 48 hours later, + (Intense erythema) [3] | Number of the subjected showing response, 48 hours later, + + (Intense erythema with edema) [3] | Number of the subjected showing response, 48 hours later, + + + (Intense erythema with edema and vesicle) [3] | SMILES | Evaluation (skin irritation) (rabbits) | P. I. I. (Primary Irritation Index) (rabbits) | Evaluation (phototoxicity) (white guinea pigs) | Phototoxic index (white guinea pigs) | Biosynthesis of collagen (%) (Human fibroblasts [2]) | Average Response (n = 30) [3]
81 | 30 | 0 | 0 | 0 | 0 | 29 | 1 | 0 | 0 | 0 | O=C(Oc1cc(=O)c(O)co1)c1ccc2c(c1)OCCO2 [Compound of Ex. 2, (5-hydroxy-4-oxo-4H-pyran-2-yl) 2H,3H-benzo [3,4-e] 1,4-dioxane-6-carboxylate] | No irritation | 0.345 | No phototoxicity | 0 | 121 | 0.42
77 | 29 | 1 | 0 | 0 | 0 | 30 | 0 | 0 | 0 | 0 | O=C(/C=C/c1ccc2c(c1)OCCO2)COc1cc(=O)c(O)co1 [Compound of Ex. 4, 2-((3E)-4-(2H,3H-benzo [3,4-e] 1,4-dioxan-6-yl)-2-oxobut-3-enyloxy)-5hydroxy-4-pyran-4-one] | No irritation | 0.350 | No phototoxicity | 0 | 122 | 0.42
88 | 30 | 0 | 0 | 0 | 0 | 30 | 0 | 0 | 0 | 0 | O=c1cc(/C=C/c2ccc3c(c2)OCO3)occ1O [Compound of Ex. 5, 2-((1E)-2-(2H,3H-benzo [3,4-d] 1,3-dioxolan-5-yl)vinyl)-5-hydroxy-4H-pyran-4-one] | No irritation | 0.375 | No phototoxicity | 0 | 116 | 0.00
84 | 30 | 0 | 0 | 0 | 0 | 30 | 0 | 0 | 0 | 0 | O=c1cc(/C=C/c2ccc3c(c2)OCCO3)occ1O [Compound of Ex. 6, 2-((1E)-2-(2H,3H-benzo [3,4-e] 1,4-dioxan-6-yl)vinyl)-5-hydroxy-4H-pyran-4-one] | No irritation | 0.315 | No phototoxicity | 0 | 115 | 0.00
